Experimental data published in patent US6399570B1, “Antimicrobial/endotoxin neutralizing polypeptide” (priority 1999, dated 2002).

Tests used:
E. coli LPS = assay: Limulus ELISA, ENC50 against E. coli LPS; type: biochemical, Escherichia coli O113:H10
Protocol: The peptide-mediated inhibition of endotoxin-induced Limulus amebocyte lysate (LAL) coagulation was measured with a sensitive LAL assay (Zhang et al., J. Clin. Microbiol. 32: 416-422 (1994)). Limulus ELISA is an endotoxin assay based on activation of the LAL coagulation by endotoxin and detection of the generated peptide-C immunoreactivity with an ELISA using a monoclonal antibody to the polypeptide. Endotoxin was defined to be neutralized when it lost its ability to activate the LAL enzymes. The 50% endotoxin-neutralizing concentration (ENC50) reflects the potency of an anti-endotoxin agent; a low ENC50 indicates high potency. Table 2 lists the determined ENC50 value of each anti-endotoxin agent against lipid A and four different types of LPS. The potency of each anti-endotoxin agent varied depending on the type of endotoxin. […] The only difference between the sequence of LF-33 and LF-27 is that LF-27 lacks the first six residues (GRRRRS) at the N-terminus of LF-33. Remarkably, this deletion led to dramatic loss of the endotoxin-neutralizing capacity of the polypeptide in this assay. Binding of serum proteins to endotoxin neutralizes the endotoxin activity in this assay by preventing endotoxin from activating LAL (Emancipator et al., Infect. Immun. 60: 596-601 (1992)).
LPS. […] LPS (purity >99%) from Neisseria meningitidis was prepared from the group B strain #6275 and its potency was 25 EU/ng. […] The potency of the above endotoxin was determined with the Limulus enzyme-linked immunosorbent assay (ELISA, 43) in comparison with US Pharmacopeia reference standard endotoxin EC-5.
Briefly, 25 μl endotoxin solution (200 EU/ml) was mixed with an equal volume of test materials in a series of two-fold dilution in 0.15 M NaCl in a sterile 96-well tissue culture plate (Nunc A/S, Roskilde, Denmark), and incubated at 37° C. for 1 h in a dry-air incubator. […] The endotoxin activity was then quantified with the use of Limulus ELISA (Zhang et al., J. Clin. Microbiol. 32: 416-422 (1994)). […] The high sensitivity of the assay allowed for very low levels of the endotoxin activity to be detected. […]

[1] = tested on: lipid A from E. coli 0113; assay: LAL assay, neutralization of lipid A endotoxin activity (FIG. 6); type: biochemical; conditions: lipid A 30 ng/ml
Protocol: The lipid A region of the LPS molecule is primarily responsible for the inflammatory and toxic effects of LPS. When LPS is released from the microbe, the lipid A portion may become more accessible. The following assays were performed to determine the potential of various amino-terminal LF polypeptides to neutralize the endotoxic activity of the lipid A portion of LPS. LF, the 6 kDa fragment of LF, LF-33, LF-27, and polymyxin B were each tested for the ability to neutralize the endotoxin activity of lipid A from E. coli 0113 (30 ng/ml), using a LAL assay. […] The endotoxin activity of the smaller fragments of LF indicate that endotoxin-neutralizing activity of these small polypeptides is masked when in the context of the intact LF molecule.

E. coli 0111 = assay: Potentiation of Rifampicin by LF polypeptides; conditions: 5 μM polypeptide + 0.9 μg/ml rifampicin, 6 hr
Protocol: E. coli cultures were exposed to sub-optimal doses of Rifampicin in the presence or absence of sub-optimal doses of the indicated polypeptides (FIG. 5), and were incubated for 6 hours, at which point CFU were determined.
E. coli 0111 were grown overnight as described above. Overnight cultures were then diluted 1:16,000 in 1% BP/PBS containing 0.9 μg/ml Rifampicin (Sigma-Aldrich Fine chemicals) and 5 μM LF polypeptides as indicated. Control cultures were those not exposed to any polypeptide. The diluted cultures were then incubated at 37° C. for 6 hr with aeration by shaking. The number of viable bacteria were then determined by dilution plating samples from each group and subsequently counting colony forming units (CFU). All values represent the average of duplicate independent experiments.

Compound | fold less potent than LF-33 at neutralizing E. coli LPS (E. coli LPS) | IC50 (E. coli LPS; endotoxin 200 EU/ml, mean +/− SD) [µM] | lipid A neutralizing activity [1] | effect on the antimicrobial activity of rifampicin (viable bacteria) (E. coli 0111)
CSCC[C@H](NC(=O)[C@H](CC(N)=O)NC(=O)[C@H](CCCNC(=N)N)NC(=O)[C@H](CCC(N)=O)NC(=O)[C@H](Cc1c[nH]c2ccccc12)NC(=O)[C@H](CCC(N)=O)NC(=O)[C@H](Cc1ccccc1)NC(=O)[C@H](CS)NC(=O)[C@H](CCCCN)NC(=O)[C@@H](NC(=O)[C@H](C)NC(=O)[C@H](CCC(=O)O)NC(=O)[C@@H]1CCCN1C(=O)[C@H](CCC(N)=O)NC(=O)[C@H](CO)NC(=O)[C@@H](NC(=O)[C@H](C)NC(=O)[C@H](CS)NC(=O)[C@H](Cc1c[nH]c2ccccc12)NC(=O)[C@H](CCC(N)=O)NC(=O)[C@@H](N)C(C)C)C(C)C)[C@@H](C)O)C(=O)N[C@@H](CCCNC(=N)N)C(=O)N[C@@H](CCCCN)C(=O)N[C@H](C(=O)N[C@@H](CCCNC(=N)N)C(=O)NCC(=O)N1CCC[C@H]1C(=O)O)C(C)C [LF-27] | approximately 10 fold | 7.45 | neutralized lipid A | no significant effect
6 kDa polypeptide: 6 kDa fragment produced by cathepsin D digestion of human LF, amino acids 1-49 of SEQ ID NO: 2 (GRRRRSVQWCAVSQPEATKCFQWQRNMRKVRGPPVSCIKRDSPIQCIQA; listed as Homo sapiens) | – | – | neutralized lipid A | more than three orders of magnitude
